The values below come from paper PMC5845004, “Novel (p)ppGpp Binding and Metabolizing Proteins of Escherichia coli” (mBio, 2018).

Each structure is given as a SMILES string. pIC50: −log10 of the molar value. Entries after “also recorded” stand apart in the source; their conditions may differ.

Assay [1] addresses SaRF3 (PrfC from S. aureus) (Staphylococcus aureus, UniProt A6QFN0). Description: DRaCALA binding, SaRF3. The settings on record: 12 µM protein.
A further assay has as its target NadR (Escherichia coli, UniProt P27278). The assay is described as follows: In vitro cleavage assay (TLC), NadR. In kind it is biochemical, E. coli. As to conditions: 10-20 µM NadR, buffer B with 100 mM NaCl, 10 min. How it is done:
The purified His6-MutT and His6-NudG proteins were tested for their relative levels of cleavage of ppGpp compared to those seen with their native substrates. For this, a 1 μM concentration of each protein and a 10 nM concentration of [α-^32P]ppGpp were used together with 100 μM concentrations of cold competitors [ppGpp, GTP, ATP, 8-oxo-(d)GTP, 2-hydroxyl-(d)ATP] or 50 mM EDTA in buffer B. The samples were incubated at 30°C for 10 min and for 1 h before the reactions were stopped by adding 50 mM EDTA. The cleavage products were resolved by TLC as described above. The purified His6-NadR and His6-TrmE proteins were tested for their cleavage of both GTP and ppGpp. […]
A 20 μM concentration of each of purified proteins MutT, NudG, NadR, TrmE, and MBP (as a negative control) was incubated with 100 μM ppGpp in buffer B (containing 40 mM Tris [pH 7.5], 100 mM NaCl, and 10 mM MgCl2) for 20 min at room temperature. Samples were snap-frozen on dry ice and analyzed with UPLC-MS afterward. […] The detection conditions were as follows: photodiode array detector (PDA), […] (evaluated at 260 nm); MS, ionization; electrospray ionization (ESI+), scan, 200 to 800 m/z with lock mass correction. […]

The next assay has as its target Apt (Escherichia coli, UniProt P69503). The settings on record: cited from earlier work.

Sequence of SaRF3 (PrfC from S. aureus) (A6QFN0 whole entry): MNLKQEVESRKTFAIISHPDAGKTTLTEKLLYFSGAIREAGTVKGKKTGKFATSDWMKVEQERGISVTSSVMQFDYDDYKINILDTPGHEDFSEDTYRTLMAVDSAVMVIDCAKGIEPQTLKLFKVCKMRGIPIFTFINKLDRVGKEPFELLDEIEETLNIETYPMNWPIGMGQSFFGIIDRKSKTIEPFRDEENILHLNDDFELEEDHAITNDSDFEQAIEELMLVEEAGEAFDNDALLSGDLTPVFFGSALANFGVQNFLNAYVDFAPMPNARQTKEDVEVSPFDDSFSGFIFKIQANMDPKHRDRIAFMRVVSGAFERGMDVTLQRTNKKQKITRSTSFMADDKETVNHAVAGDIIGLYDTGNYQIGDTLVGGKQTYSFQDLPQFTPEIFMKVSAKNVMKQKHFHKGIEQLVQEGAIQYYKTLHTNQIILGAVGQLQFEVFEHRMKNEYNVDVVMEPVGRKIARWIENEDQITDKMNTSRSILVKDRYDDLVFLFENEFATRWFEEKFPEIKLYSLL
Sequence of Apt (P69503 whole entry): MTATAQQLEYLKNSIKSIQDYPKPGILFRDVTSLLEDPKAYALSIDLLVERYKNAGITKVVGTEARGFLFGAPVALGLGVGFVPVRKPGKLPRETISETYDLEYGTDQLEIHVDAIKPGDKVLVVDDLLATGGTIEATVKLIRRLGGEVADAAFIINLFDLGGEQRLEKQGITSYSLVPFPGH
Sequence of NadR (P27278 whole entry): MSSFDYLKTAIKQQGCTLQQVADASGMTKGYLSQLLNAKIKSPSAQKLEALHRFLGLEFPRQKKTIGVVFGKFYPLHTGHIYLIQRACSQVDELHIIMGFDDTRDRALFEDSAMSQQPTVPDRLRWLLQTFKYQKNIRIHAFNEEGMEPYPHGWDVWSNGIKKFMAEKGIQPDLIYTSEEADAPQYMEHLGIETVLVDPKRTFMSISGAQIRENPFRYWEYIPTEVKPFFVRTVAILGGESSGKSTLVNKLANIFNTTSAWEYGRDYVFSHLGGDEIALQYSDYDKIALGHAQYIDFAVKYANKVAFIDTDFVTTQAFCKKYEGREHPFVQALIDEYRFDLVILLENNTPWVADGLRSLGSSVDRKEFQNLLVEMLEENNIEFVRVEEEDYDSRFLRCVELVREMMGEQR

In general, pIC50 refers to the IC50 on a negative log10 scale, so that one unit is a factor of ten. For `Nc1nc2c(ncn2[C@@H]2O[C@H](COP(=O)(O)OP(=O)(O)O)[C@@H](OP(=O)(O)OP(=O)(O)O)[C@H]2O)c(=O)[nH]1` [ppGpp, guanosine tetraphosphate], in assay [1], the “binding to SaRF3” value is “very weak binding (if any); also recorded: No binding of ppGpp by 12 µM of PrfC from S. aureus”. The “cleavage by NadR” value at NadR is listed as “converted most of ppGpp”. Besides, the pIC50 at Apt is ~2.82.
